Like-named read-outs stand apart in the source and are kept apart here.
Assays:
Experiment in all cases: intrinsic tryptophan fluorescence quenching
Format in all cases: binding
HucR-H51F [1] = target: T1, HucR-H51F (Deinococcus radiodurans, UniProt Q9RV71, H51F)
HucR-E48Q [2] = target: T2, HucR-E48Q (Deinococcus radiodurans, UniProt Q9RV71, E48Q)
[3] = target: T3, HucR (hypothetical uricase regulator), HucR-WT (Deinococcus radiodurans, UniProt Q9RV71)
T3 sequence (Q9RV71 1-181): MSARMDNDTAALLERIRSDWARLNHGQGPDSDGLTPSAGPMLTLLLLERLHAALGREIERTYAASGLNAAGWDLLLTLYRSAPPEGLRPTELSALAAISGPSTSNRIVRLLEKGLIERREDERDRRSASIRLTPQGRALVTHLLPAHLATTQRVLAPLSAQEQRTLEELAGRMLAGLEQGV

[4] = target: T3, HucR (hypothetical uricase regulator), HucR-WT; remark: listed apart in the source
HucR-E48Q [5] = target: T2, HucR-E48Q; remark: listed apart in the source
HucR-H51F [6] = target: T1, HucR-H51F; remark: listed apart in the source

Compound | Kd (HucR-H51F [1]) [µM] | Kd (HucR-E48Q [2]) [µM] | Kd [3] [µM] | Kd [4] [µM] | Kd (HucR-E48Q [5]) [µM] | Kd (HucR-H51F [6]) [µM]
O=c1[nH]c(=O)c2[nH]c(=O)[nH]c2[nH]1 [urate] | 14.7 ± 1.2 | 2.2 ± 0.8 | 11.4 ± 2.9 | – | – | –
O=c1[nH]c(=O)c2[nH]cnc2[nH]1 [xanthine] | – | – | – | ~17 | ~17 | ~17
